Test results reported in article PMC5802278, “Molecular and cellular mechanisms of HIF prolyl hydroxylase inhibitors in clinical trials” (Chemical Science, 2017).
Where two headings read alike, the source gives them in different places.

Columns and labels:
Format in all cases: biochemical
Ofd1 = biological target: T1, Ofd1 (Schizosaccharomyces pombe, UniProt Q11120); test: MALDI-TOF MS Ofd1 hydroxylation assay
T1 construct: His6 (N); made in house; host or cells: E. coli BL21(DE3)
T1 sequence (Q11120 1-515): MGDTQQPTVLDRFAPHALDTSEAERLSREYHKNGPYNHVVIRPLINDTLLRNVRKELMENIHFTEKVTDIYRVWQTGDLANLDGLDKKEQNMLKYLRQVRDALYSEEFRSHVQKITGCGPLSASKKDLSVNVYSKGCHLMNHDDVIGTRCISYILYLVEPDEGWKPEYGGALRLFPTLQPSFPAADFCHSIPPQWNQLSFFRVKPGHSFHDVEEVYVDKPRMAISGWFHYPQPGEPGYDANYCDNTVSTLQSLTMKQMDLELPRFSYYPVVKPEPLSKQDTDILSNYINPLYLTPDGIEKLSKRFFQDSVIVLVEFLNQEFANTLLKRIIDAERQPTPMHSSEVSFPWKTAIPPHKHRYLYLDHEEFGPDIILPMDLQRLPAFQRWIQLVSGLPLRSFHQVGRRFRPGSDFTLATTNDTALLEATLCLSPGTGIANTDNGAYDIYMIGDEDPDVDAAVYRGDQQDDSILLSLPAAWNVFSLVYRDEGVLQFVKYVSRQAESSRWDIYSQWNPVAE

Tpa1p = biological target: T2, Tpa1p (Saccharomyces cerevisiae, UniProt P40032); test: MALDI-TOF MS Tpa1p hydroxylation assay
T2 construct: His6 (N); made in house; host or cells: E. coli BL21(DE3)
T2 sequence (P40032 with tags, fused parts or gaps): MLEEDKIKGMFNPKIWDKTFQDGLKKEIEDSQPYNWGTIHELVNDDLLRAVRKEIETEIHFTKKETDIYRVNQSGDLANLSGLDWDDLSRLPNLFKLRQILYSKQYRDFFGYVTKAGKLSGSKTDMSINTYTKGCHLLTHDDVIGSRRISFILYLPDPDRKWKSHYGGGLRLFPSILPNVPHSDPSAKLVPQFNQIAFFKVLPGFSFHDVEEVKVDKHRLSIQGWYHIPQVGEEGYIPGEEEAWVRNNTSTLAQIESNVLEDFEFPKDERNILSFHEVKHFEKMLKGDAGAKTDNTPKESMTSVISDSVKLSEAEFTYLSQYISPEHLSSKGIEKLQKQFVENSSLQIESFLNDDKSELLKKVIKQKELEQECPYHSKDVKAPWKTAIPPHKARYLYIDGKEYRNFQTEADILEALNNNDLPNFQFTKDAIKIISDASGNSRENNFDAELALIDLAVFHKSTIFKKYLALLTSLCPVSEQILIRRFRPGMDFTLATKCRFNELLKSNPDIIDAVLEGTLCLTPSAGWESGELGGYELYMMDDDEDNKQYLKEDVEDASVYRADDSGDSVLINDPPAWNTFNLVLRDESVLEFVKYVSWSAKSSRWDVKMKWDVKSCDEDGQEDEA
Procedure: MALDI-TOF MS OFD1/TPA1p hydroxylation assays13
For enzyme production, the reported procedures were used.13 E. coli BL21(DE3) cells transformed with pNIC28-His6-Ofd1 or pNIC28-His6-Tpa1pΔ2-20 were cultured to an OD600 of 0.6; recombinant protein production was induced through the addition of isopropyl β-D-1-thiogalactopyranoside (IPTG) to a concentration of 0.5 mM. The induced cultures were […]
incubated overnight at 18°C with shaking, then harvested. The induced cells were suspended in 500 mM NaCl, 40 mM imidazole, 50 mM HEPES pH 7.5, sonicated, and the His-tagged protein was purified by nickel affinity chromatography.13 Both Ofd1 and Tpa1p were buffer-exchanged into 500 mM NaCl, 5% glycerol, 1 mM DTT, 50 mM HEPES pH 7.5 following […]
consisted of Ofd1 (1 µM) or Tpa1p (2 µM) with 2OG (20 µM), L-ascorbic acid (100 µM), (NH4)2Fe(SO4)2 (50 µM), RPS23 peptide (amino acid sequence
-CONH2; 25 µM) and the […]
relevant inhibitor (initially prepared in 10% DMSO, diluted to 1% DMSO in the reaction mixture) all in 50 mM HEPES pH 7.5. Reactions were quenched after 2 min (Ofd1) or 4 min (Tpa1p) by the addition of formic acid to a final concentration of 1%. The extent of hydroxylation was monitored by MALDI-TOF MS, and the IC50 curve was fit to the data using […]
LC-MS PHD2 hydroxylation assays
The PHD2 RF-MS RapidFire liquid chromatography mass spectrometry (RF-MS) assay monitors turnover of a C-terminal oxygenase dependent domain (CODD) peptide substrate […]
-CONH2 and appearance of the hydroxylated peptide product
(Pro564) in an endpoint type assay format (typical enzyme incubation time of 15 minutes).
Tris(hydroxymethyl)aminomethane was from Fisher. Ferrous ammonium sulfate (FAS), 2-oxoglutarate (2OG) and L-ascorbic acid were from Sigma Aldrich; solutions of these were prepared freshly each day. All inhibition assays were carried out in 384-well polypropylene plates (Greiner Bio-One). PHD2 assays were performed in assay buffer (50 mM Tris.Cl pH […]
were prepared using an ECHO 550 acoustic dispenser (Labcyte) and dry dispensed into 384-well polypropylene assay plates. The final assay concentration of DMSO was kept constant at 0.5%. PHD2 protein was prepared at a concentration of 300 nM in assay buffer and 25 μl dispensed across each 384-well assay plate. […] Peptide charge states were monitored in positive mode. Ion chromatogram data were extracted for the +2 charge state and peak area data integrated using RapidFire Integrator software (Agilent). % conversion of the CODD peptide substrate to the +16 hydroxylated peptide was calculated using the equation: % conversion = 100 x hydroxylated / (hydroxylated + non-hydroxylated peptide). IC50 values were determined from non-linear regression plots using GraphPad prism. […]

JARID1B (KDM5B) = JARID1B (KDM5B) (Homo sapiens, UniProt Q9UGL1); test: AlphaScreen histone demethylase assay
Sequence of JARID1B (KDM5B) (Q9UGL1 whole entry): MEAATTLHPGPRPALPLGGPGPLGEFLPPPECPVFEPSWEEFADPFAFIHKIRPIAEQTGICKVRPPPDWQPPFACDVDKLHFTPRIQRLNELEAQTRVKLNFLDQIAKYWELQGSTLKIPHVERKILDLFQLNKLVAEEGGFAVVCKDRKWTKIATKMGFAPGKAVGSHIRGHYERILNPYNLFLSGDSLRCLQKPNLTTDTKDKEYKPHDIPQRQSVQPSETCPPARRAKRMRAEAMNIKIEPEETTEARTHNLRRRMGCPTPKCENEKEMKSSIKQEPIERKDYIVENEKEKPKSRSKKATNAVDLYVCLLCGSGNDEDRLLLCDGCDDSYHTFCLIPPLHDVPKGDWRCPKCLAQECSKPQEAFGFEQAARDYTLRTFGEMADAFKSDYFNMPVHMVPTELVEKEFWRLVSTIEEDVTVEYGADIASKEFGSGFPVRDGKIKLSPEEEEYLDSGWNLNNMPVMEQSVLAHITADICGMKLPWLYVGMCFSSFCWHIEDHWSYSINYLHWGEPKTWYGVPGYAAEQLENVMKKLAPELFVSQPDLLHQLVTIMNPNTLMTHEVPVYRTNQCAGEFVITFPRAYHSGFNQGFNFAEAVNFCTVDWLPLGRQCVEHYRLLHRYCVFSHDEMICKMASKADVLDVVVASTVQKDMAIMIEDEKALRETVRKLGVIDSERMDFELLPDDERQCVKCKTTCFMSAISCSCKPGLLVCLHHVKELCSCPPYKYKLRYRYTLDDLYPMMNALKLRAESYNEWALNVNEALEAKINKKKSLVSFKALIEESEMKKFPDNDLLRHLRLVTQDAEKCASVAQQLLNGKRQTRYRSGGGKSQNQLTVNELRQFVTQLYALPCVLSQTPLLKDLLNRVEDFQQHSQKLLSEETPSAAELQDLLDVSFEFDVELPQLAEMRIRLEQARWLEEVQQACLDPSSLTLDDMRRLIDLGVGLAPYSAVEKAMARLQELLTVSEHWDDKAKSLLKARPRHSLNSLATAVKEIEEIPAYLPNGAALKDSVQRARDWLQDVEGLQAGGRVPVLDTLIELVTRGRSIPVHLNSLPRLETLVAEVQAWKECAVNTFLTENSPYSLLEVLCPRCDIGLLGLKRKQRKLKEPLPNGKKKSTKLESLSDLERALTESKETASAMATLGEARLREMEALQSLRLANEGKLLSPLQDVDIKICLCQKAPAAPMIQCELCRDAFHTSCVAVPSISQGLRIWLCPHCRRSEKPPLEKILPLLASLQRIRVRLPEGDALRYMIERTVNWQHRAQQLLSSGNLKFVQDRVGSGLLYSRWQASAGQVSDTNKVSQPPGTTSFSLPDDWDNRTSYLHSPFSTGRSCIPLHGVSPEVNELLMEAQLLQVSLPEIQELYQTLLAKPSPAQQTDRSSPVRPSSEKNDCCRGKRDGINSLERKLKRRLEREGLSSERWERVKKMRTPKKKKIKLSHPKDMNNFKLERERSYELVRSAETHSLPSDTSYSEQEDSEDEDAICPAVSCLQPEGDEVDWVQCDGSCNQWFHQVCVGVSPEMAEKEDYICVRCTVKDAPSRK

JARID1D (KDM5D) = JARID1D (KDM5D) (Homo sapiens, UniProt Q9BY66); test: AlphaScreen histone demethylase assay
Sequence of JARID1D (KDM5D) (Q9BY66 whole entry): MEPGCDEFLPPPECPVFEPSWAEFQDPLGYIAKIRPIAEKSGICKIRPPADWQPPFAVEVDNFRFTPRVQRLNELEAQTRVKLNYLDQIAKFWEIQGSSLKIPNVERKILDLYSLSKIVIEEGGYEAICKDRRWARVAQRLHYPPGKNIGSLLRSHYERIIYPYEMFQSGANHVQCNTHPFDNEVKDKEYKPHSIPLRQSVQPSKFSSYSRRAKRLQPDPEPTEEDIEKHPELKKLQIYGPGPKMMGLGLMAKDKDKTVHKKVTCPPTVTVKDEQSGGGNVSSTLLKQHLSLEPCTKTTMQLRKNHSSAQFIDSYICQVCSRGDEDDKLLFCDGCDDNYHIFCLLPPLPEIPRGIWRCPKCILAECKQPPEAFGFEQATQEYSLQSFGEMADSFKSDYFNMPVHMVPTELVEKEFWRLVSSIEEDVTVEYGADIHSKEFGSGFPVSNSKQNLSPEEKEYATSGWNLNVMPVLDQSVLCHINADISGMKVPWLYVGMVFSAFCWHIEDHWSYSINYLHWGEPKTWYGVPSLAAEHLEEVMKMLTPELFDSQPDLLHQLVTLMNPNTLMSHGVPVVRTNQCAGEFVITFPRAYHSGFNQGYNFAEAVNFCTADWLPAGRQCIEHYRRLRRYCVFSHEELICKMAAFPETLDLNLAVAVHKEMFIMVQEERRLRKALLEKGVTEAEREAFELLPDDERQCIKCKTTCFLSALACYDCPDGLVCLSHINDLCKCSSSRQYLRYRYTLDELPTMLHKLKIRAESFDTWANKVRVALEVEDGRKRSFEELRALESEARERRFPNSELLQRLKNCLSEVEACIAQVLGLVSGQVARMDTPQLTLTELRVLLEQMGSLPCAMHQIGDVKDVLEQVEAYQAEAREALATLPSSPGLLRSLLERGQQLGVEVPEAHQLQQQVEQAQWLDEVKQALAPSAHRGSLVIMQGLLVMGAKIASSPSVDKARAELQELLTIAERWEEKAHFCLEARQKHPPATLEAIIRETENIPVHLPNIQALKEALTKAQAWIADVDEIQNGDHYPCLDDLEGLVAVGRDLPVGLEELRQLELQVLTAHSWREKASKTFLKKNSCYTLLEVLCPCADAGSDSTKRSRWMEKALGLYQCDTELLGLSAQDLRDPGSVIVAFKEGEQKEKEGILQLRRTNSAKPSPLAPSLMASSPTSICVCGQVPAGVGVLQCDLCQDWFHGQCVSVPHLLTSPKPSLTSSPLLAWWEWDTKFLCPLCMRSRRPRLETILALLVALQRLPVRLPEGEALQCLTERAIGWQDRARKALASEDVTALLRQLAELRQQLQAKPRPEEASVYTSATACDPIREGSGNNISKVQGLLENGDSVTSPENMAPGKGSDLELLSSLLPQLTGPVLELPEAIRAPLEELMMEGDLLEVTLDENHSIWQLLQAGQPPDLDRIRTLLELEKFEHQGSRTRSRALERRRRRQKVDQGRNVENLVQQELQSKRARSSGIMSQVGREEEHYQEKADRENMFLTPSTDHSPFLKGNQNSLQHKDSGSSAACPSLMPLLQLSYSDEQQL

[1] = isolated recombinant enzyme, 1 μM, read-out: IC50 Ofd1
[2] = isolated recombinant enzyme, 2 µM, read-out: IC50 Tpa1p

Row | SMILES | IC50 (Ofd1; [1]) [µM] | IC50 (Tpa1p; [2]) [µM] | IC50 (JARID1B (KDM5B); read-out: IC50 JARID1B (KDM5B)) [µM] | IC50 (JARID1D (KDM5D); read-out: IC50 JARID1D (KDM5D)) [µM] | IC50 (Ofd1) [µM] | IC50 (Tpa1p) [µM] | IC50 (JARID1B (KDM5B)) [µM] | IC50 (JARID1D (KDM5D)) [µM]
1 | Cc1nc(C(=O)NCC(=O)O)c(O)c2ccc(Oc3ccccc3)cc12 [FG-4592] | 8.5 | 12.8 | > 100 | > 100 |  |  |  | 
2 | O=C(O)CNC(=O)C1C(=O)N(C2CCCCC2)C(=O)N(C2CCCCC2)C1=O [GSK1278863] |  |  |  |  | 23.9 | 5.1 | > 100 | > 100
3 | CC(C)(C)OC(=O)c1ccc(-n2[nH]cc(-n3ccnn3)c2=O)nc1 [IOX4] |  |  | 87 | 91 | 41.3 | 2.3 |  | 
4 | O=c1c(-n2ccnn2)c[nH]n1-c1cc(N2CCOCC2)ncn1 [Molidustat] | 10.3 | 3.8 | > 100 | > 100 |  |  |  | 
5 | O=C(O)CNC(=O)c1ncc(-c2cccc(Cl)c2)cc1O [Vadadustat] |  |  | 30 | > 100 |  |  |  | 
